Data reported in US11986507B1, “Micronutrient composition to improve men's health” (priority 2023, dated 2024).

What was measured:
Type in all cases: cell-based
Mouse Leyden TM3 cells [1] = assay: Testosterone production assay in TM3 cells under pro-inflammatory conditions (TNF alpha); conditions: 10 ng/ml TNFa; for effect on testosterone secretion (in words): 48 h, in the presence and absence of DHEA (FIG. 3)
Method: (§1) Testosterone production assay: Mouse Leyden TM3 cells (ATCC) were cultured at 37° C., 5% CO2, in growth medium: 1:1 mixture of Ham's F12 medium and Dulbecco's modified Eagle's medium with 2.5 mM L-Glutamine, 0.5 mM Sodium Pyruvate, 1.2 g/L Sodium Bicarbonate and 15 mM HEPES, 92.5%; horse serum, 5%; fetal bovine serum, 2.5%. TM3 cells were seeded in 96-well plates covered with fibronectin or collagen (COSTAR) in […] growth medium. After reaching confluency cells were supplied with tested components in 100 mcl growth medium for 48 hour incubation. In some tests we also used additions of TNF alpha at 1 ng/ml and 10 ng/ml as indicated in appropriate figure legends. Testosterone content in 50 mcl conditioned cell culture medium samples was assayed with testosterone ELISA assay (DRG #EIA-1559) as described in the manufacturer's protocol.
It is known that chronic inflammation, such as in the presence of TNF alpha, can suppress testosterone production, which has physiological implications as it is related to an increased risk of infertility. Incubation was for 48 h with 10 ng/ml TNFa (all samples) and 1 mcg/ml DHEA or w/o DHEA. Data are presented as % of no additions Control. We evaluated the effects of micronutrients on testosterone production in Leydig cells exposed to a proinflammatory factor—TNF alpha.

[2] = test system: Human aortic smooth muscle cells (AoSMC); assay: Collagen gel contraction by AoSMC; conditions: individual components (FIG. 6)
Method: Collagen gel contraction by AoSMC: Gel Contraction Assay: Human aortic smooth muscle cells (AoSMS) were obtained from Lonza Corporation and cultured in DMEM cell culture medium (ATCC) supplemented with 5% fetal bovine serum (ATCC). For experiments cells were suspended in DMEM medium at 500,000 per mL by trypsinization and mixed with equal volume of 2 mg/ml bovine skin collagen (Sigma) solution in DMEM. Resulting cell suspension was distributed at 300 mcl per well of plastic 24 well plate pretreated with 10 mg/ml bovine serum albumin in phosphate buffered saline. Collagen gels, formed in the wells after one hour incubation at 37° C., were supplemented with 500 mcl DMEM containing indicated amounts of tested compounds. After 24 hours incubation at 37° C. pictures of the wells were taken with digital photo camera and gel surface area was measured in pixels using ImageJ scientific software. Gel contraction was expressed as percentage of unsupplemented control using the following formula: (No Cell Control Gel Area−Tested Sample Gel Area)/(No Cell Control Gel Area−Not Supplemented Control Gel Area)*100%. All experiments were done in triplicates and results are expressed as mean values+/−SD.

Mouse Leyden TM3 cells [3] = assay: Testosterone production assay in TM3 cells, normal conditions (testosterone ELISA)
Method: as §1
The concentration of ingredients were Rosemary extract 20 mcg/ml, Fenugreek-20 mcg/ml, Cassia nomane—20 mcg/ml, 3′3-di indolylmethylene—5 mcg/ml, Zinc—2 mcg/ml, Phosphatidylserine—20 mcg/ml, Vitamin D—5 mcg/ml, Niacin—20 mcg/ml, Theanine—2 mcg/ml, Aspartic acid—2 mcg/ml, Arginine—2 mcg/ml and DHEA—2 mcg/ml.

[4] = test system: IL6 release by Human Aortic Endothelial Cells (HAEC); assay: IL6 secretion by human aortic endothelial cells (HAEC) in the presence of LPS (ELISA); conditions: 24 h, 20 ng/ml LPS, with 200 mcM Ascorbate or w/o Ascorbate (FIG. 13)
Method: Cytokine assay in Human Aortic endothelial cells (AoEC): Human Aortic endothelial cells (AoEC, Lonza) were cultured in EBG-2 cell culture medium (Lonza) and used in experiments at 5-8 passages. AoEC were seeded in 96-well plates covered with fibronectin or collagen (COSTAR) in 100 mcl/well growth medium. After reaching confluency cells were supplemented with tested components in 100 mcl growth medium for 48 hour incubation. Levels of cytokines were assayed with corresponding ELISA assays (R&D Systems).
The test was carried out by incubating HAEC cells for 24 h in the presence of 20 ng/ml LPS (all samples) and 200 mcM Ascorbate or w/o Ascorbate.

Compound	effect on testosterone secretion (in words) (Mouse Leyden TM3 cells [1])	testosterone secretion, % of Control (Mouse Leyden TM3 cells [3]; 11 mcg/ml (FIG. 2))	effect of individual compounds on IL-6 secretion (in words) [4]	also measured
CC(=O)[O-].CC(=O)[O-].[Zn+2] [zinc, Zinc Acetate Dihydrate]	decreasing	–	–	SMC relaxation by individual compounds [2]: 69%
C[C@]12CC[C@H](O)CC1=CC[C@@H]1[C@@H]2CC[C@]2(C)C(=O)CC[C@@H]12 [DHEA, Dehydroepiandrosterone]	–	1402 % of Control	–	increase of testosterone secretion compared to control (Mouse Leyden TM3 cells [3]; 11 mcg/ml (FIG. 2)): 1402%; increase of testosterone secretion compared to control (Mouse Leyden TM3 cells [3]; 33 mcg/ml (FIG. 2)): 2361%; increase of testosterone secretion compared to control (Mouse Leyden TM3 cells [3]; applied individually, DHEA 2 mcg/ml (FIG. 1)): 161%; decrease of testosterone secretion compared to normal Control (Mouse Leyden TM3 cells [1]; 1 mcg/ml DHEA, 48 h (FIG. 3)): about 48%
C=C1CC[C@H](O)C/C1=C/C=C1\CCC[C@]2(C)[C@@H]([C@H](C)CCCC(C)C)CC[C@@H]12 [Vitamin D, Cholecalciferol]	–	115 % of Control	significant inhibitory effect	–
Oc1ccc(C=Cc2cc(O)cc(O)c2)cc1 [resveratrol]	decreasing	–	–	–
Phosphatidylserine	–	–	significant inhibitory effect	–
